Measurements from ChEMBL document CHEMBL4483862, “Open-source discovery of chemical leads for next-generation chemoprotective antimalarials” (2018).

System: Plasmodium berghei
Assay: Luciferase/luciferin-expressing antifolate-resistant parasites were used to infect a culture of HepG2 cells that were pre-incubated with compounds. Infected hepatocytes emit light due to the luciferase reaction. Assay results are presented as the percent inhibition of light emission compared to control. […]
Assay type: functional
Conditions: sporozoite; for IC90: read-out: LUCIFERASE INFECTION ASSAY - IC90
[1] = read-out: LUCIFERASE INFECTION ASSAY - IC50

NC(=O)c1ccc(-c2cc(-c3ccc(F)cc3)cnc2N)cc1
IC50 (HEPG2TOX_HILL_SLOPE 8.28, HEPG2TOX_R_SQUARED 0.58, PBLUC_HILL_SLOPE 436, PBLUC_R_SQUARED 0.522, read-out: LUCIFERASE INFECTION ASSAY - IC50): 2.32 µM | IC90: 2.33 µM

Cc1cc(C)c(-c2csc(NC(=O)c3ccccc3SCC(=O)NCC3CCCCC3)n2)cc1C
IC50 (FFLUC_HILL_SLOPE 1.8, FFLUC_R_SQUARED 0.211, HEPG2TOX_HILL_SLOPE 0.456, HEPG2TOX_R_SQUARED 0.807, PBLUC_HILL_SLOPE 10.4, PBLUC_R_SQUARED 0.477, read-out: LUCIFERASE INFECTION ASSAY - IC50): 4.04 µM | IC90: 4.99 µM

CN(C)C(C(=O)c1ccccc1)C(c1ccc(F)cc1)c1ccc(F)cc1 (configuration not stated)
IC50 [1]: > 10 µM | IC90: > 10 µM

O=C(NCCCNc1ccnc2cc(Cl)ccc12)c1ccccc1F
IC50 (PBLUC_HILL_SLOPE 1.88, PBLUC_R_SQUARED 0.797, read-out: LUCIFERASE INFECTION ASSAY - IC50): 1.93 µM | IC90: 6.19 µM

O=C(/C=C/c1ccccc1[N+](=O)[O-])OCc1nc2ccccc2s1
IC50 (PBLUC_HILL_SLOPE 15.4, PBLUC_R_SQUARED 0.138, read-out: LUCIFERASE INFECTION ASSAY - IC50): > 10 µM | IC90: > 10 µM

CCOC(=O)C1=C(CN(C)C2CCCCC2)NC(=O)NC1
IC50 [1]: > 10 µM | IC90: > 10 µM

CN(C)c1ccc(C(=O)Oc2ccc(-c3nnco3)cc2)cn1
IC50 [1]: > 10 µM | IC90: > 10 µM

O=C(CN(Cc1ccco1)C(=O)c1ccc(-c2cccc(C(F)(F)F)c2)o1)Nc1ccccc1Br
IC50 [1]: > 10 µM | IC90: > 10 µM

CC(C)c1ccc(NC(=O)C2=CN3CCN(Cc4ccc(F)cc4)C(=O)N=C3O2)cc1
IC50 [1]: > 10 µM | IC90: > 10 µM

C=C1CC(=O)N(c2ccc(OC(F)(F)F)cc2)C1=O
IC50 [1]: > 12.2 µM | IC90: > 12.2 µM

c1ccc(-c2csc3ncnc(N4CCN(c5cnccn5)CC4)c23)cc1
IC50 [1]: > 10 µM | IC90: > 10 µM

CCCCOc1ccc(/C=C/C(=O)NNC(=O)Cc2nc3ccccc3n2C)cc1OCC
IC50 (HEPG2TOX_HILL_SLOPE 2.18, HEPG2TOX_R_SQUARED 0.787, PBLUC_HILL_SLOPE 13.4, PBLUC_R_SQUARED 0.401, read-out: LUCIFERASE INFECTION ASSAY - IC50): 7.73 µM | IC90: 9.1 µM

CCOc1cc(C(=O)NC2CCCCCC2)ccc1OCc1cccnc1
IC50 [1]: > 2 µM | IC90: > 2 µM

O=c1nc(/C=C/c2cccc3cccnc23)[nH]c2sc3c(c12)CCCCC3
IC50 [1]: > 10 µM | IC90: > 10 µM

O=C(Nc1cccc2c[nH]nc12)c1cnc(OCC(F)(F)F)c(Cl)c1
IC50 (PBLUC_HILL_SLOPE 2.15, PBLUC_R_SQUARED 0.641, read-out: LUCIFERASE INFECTION ASSAY - IC50): 1.99 µM | IC90: 5.53 µM

N#CC(C#N)=Cc1c(-c2ccc(Cl)cc2)[nH]c2ccccc12
IC50 (HEPG2TOX_HILL_SLOPE 0.752, HEPG2TOX_R_SQUARED 0.846, PBLUC_HILL_SLOPE 1.54, PBLUC_R_SQUARED 0.775, read-out: LUCIFERASE INFECTION ASSAY - IC50): 0.332 µM | IC90: 1.39 µM

O=C(Nc1cc(Cl)ccc1O)c1ccccc1CSc1ccc(Cl)cc1
IC50 (HEPG2TOX_HILL_SLOPE 7.65, HEPG2TOX_R_SQUARED 0.733, PBLUC_HILL_SLOPE 11.9, PBLUC_R_SQUARED 0.0529, read-out: LUCIFERASE INFECTION ASSAY - IC50): 6.47 µM | IC90: 7.79 µM

CS(=O)(=O)c1ccc(-c2ccc3ncc(-c4cccc(CO)c4)n3n2)cc1
IC50 (HEPG2TOX_HILL_SLOPE 2.77, HEPG2TOX_R_SQUARED 0.883, PBLUC_HILL_SLOPE 15.3, PBLUC_R_SQUARED 0.0795, read-out: LUCIFERASE INFECTION ASSAY - IC50): 3.37 µM | IC90: 3.89 µM

Cc1ccc(Nc2nnc(SC(C)C(=O)NC(C)c3ccc(F)cc3)s2)cc1 (configuration not stated)
IC50 (PBLUC_HILL_SLOPE 2.15, PBLUC_R_SQUARED 0.495, read-out: LUCIFERASE INFECTION ASSAY - IC50): 4.9 µM | IC90: > 10 µM

COc1cc(NCc2cc(Cl)cc(Cl)c2OC)ccc1NC(=O)C(C)C
IC50 (HEPG2TOX_HILL_SLOPE 3.35, HEPG2TOX_R_SQUARED 0.946, PBLUC_HILL_SLOPE 1.13, PBLUC_R_SQUARED 0.756, read-out: LUCIFERASE INFECTION ASSAY - IC50): 1.15 µM | IC90: 8.02 µM

Cc1ccccc1C(=O)OCC(=O)c1cc(C)n(Cc2ccco2)c1C
IC50 (PBLUC_HILL_SLOPE 1.7, PBLUC_R_SQUARED 0.868, read-out: LUCIFERASE INFECTION ASSAY - IC50): 0.843 µM | IC90: 3.07 µM

Cc1cc(C)n(-c2ccc([N+](=O)[O-])cc2S(=O)(=O)N(CC(=O)N2CCCc3ccccc32)c2ccc(Cl)cc2)n1
IC50 (FFLUC_HILL_SLOPE 9.12, FFLUC_R_SQUARED 0.891, HEPG2TOX_HILL_SLOPE 1.68, HEPG2TOX_R_SQUARED 0.248, PBLUC_HILL_SLOPE 7.9, PBLUC_R_SQUARED 0.762, read-out: LUCIFERASE INFECTION ASSAY - IC50): 3.56 µM | IC90: 4.71 µM

COc1ccc(Nc2n[nH]c(NC(=O)Cc3c(Cl)cccc3Cl)c2C#N)cc1
IC50 (FFLUC_HILL_SLOPE 14.5, FFLUC_R_SQUARED 0.631, HEPG2TOX_HILL_SLOPE 1.37, HEPG2TOX_R_SQUARED 0.939, PBLUC_HILL_SLOPE 1.1, PBLUC_R_SQUARED 0.834, read-out: LUCIFERASE INFECTION ASSAY - IC50): 0.069 µM | IC90: 0.506 µM

Cc1ccc(C(=O)c2c3c4sc5ccccc5n4c(-c4ccc(C)cc4)nc-3[n+](-c3ccccc3)c2O)cc1
IC50 [1]: > 10 µM | IC90: > 10 µM

O=C(Cc1cc(Cl)c2c(c1)OCCO2)NC(c1ccccc1)c1cccs1 (configuration not stated)
IC50 [1]: > 10 µM | IC90: > 10 µM

CCN(Cc1ccccc1)c1nc2ccccc2nc1NS(=O)(=O)c1cc([N+](=O)[O-])ccc1C
IC50 (FFLUC_HILL_SLOPE 11.4, FFLUC_R_SQUARED 0.293, HEPG2TOX_HILL_SLOPE 1.92, HEPG2TOX_R_SQUARED 0.959, PBLUC_HILL_SLOPE 2.98, PBLUC_R_SQUARED 0.638, read-out: LUCIFERASE INFECTION ASSAY - IC50): 7.87 µM | IC90: > 10 µM

CNC(=S)Nc1cc(C(F)(F)F)cc(C(F)(F)F)c1
IC50 (PBLUC_HILL_SLOPE 3.27, PBLUC_R_SQUARED 0.572, read-out: LUCIFERASE INFECTION ASSAY - IC50): 4.26 µM | IC90: 8.33 µM

N#C/C(=C\c1sccc1Oc1ccccc1)S(=O)(=O)c1ccc(C(F)(F)F)cn1
IC50 (FFLUC_HILL_SLOPE 0.259, FFLUC_R_SQUARED 0.0664, read-out: LUCIFERASE INFECTION ASSAY - IC50): > 7.56 µM | IC90: > 7.56 µM

CC(=O)c1cccc(-c2ccc3ncc(-c4cccc(C(F)(F)F)c4)n3n2)c1
IC50 (HEPG2TOX_HILL_SLOPE 2.43, HEPG2TOX_R_SQUARED 0.95, PBLUC_HILL_SLOPE 15.4, PBLUC_R_SQUARED 0.713, read-out: LUCIFERASE INFECTION ASSAY - IC50): 0.353 µM | IC90: 0.407 µM

COc1ccccc1N(Cc1cc2ccc(C)cc2[nH]c1=O)S(=O)(=O)c1ccccc1
IC50 [1]: > 10 µM | IC90: > 10 µM

CC(C)c1ccccc1N(C(=O)C1CC(=O)N(CCc2ccccc2)C1)c1nc2ccccc2s1 (configuration not stated)
IC50 (HEPG2TOX_HILL_SLOPE 7.95, HEPG2TOX_R_SQUARED 0.294, read-out: LUCIFERASE INFECTION ASSAY - IC50): > 10 µM | IC90: > 10 µM

OCc1cccc(-c2cnc3ccc(-c4cccc(Oc5ccccc5)c4)nn23)c1
IC50 (HEPG2TOX_HILL_SLOPE 3.57, HEPG2TOX_R_SQUARED 0.188, PBLUC_HILL_SLOPE 2.99, PBLUC_R_SQUARED 0.337, read-out: LUCIFERASE INFECTION ASSAY - IC50): 2.23 µM | IC90: 4.64 µM

Cc1cc(NC(=O)c2ccc(CSCc3c(Cl)cccc3Cl)cc2)no1
IC50 (FFLUC_HILL_SLOPE 28.8, FFLUC_R_SQUARED 0.69, PBLUC_HILL_SLOPE 8.08, PBLUC_R_SQUARED 0.529, read-out: LUCIFERASE INFECTION ASSAY - IC50): 0.997 µM | IC90: 1.31 µM

CCCn1c(=O)c2ccccc2n2c(SCc3nc(=O)c4ccc(C(=O)O)cc4[nH]3)nnc12
IC50 [1]: > 10 µM | IC90: > 10 µM

CCN(CC)S(=O)(=O)c1cccc(-c2nnc(SCC(=O)N3CCC(c4ccccc4)=N3)n2Cc2ccccc2)c1
IC50 (FFLUC_HILL_SLOPE 11.4, FFLUC_R_SQUARED 0.285, PBLUC_HILL_SLOPE 0.735, PBLUC_R_SQUARED 0.117, read-out: LUCIFERASE INFECTION ASSAY - IC50): > 10 µM | IC90: > 10 µM

CN(c1ccccc1)c1ccc(CN2CCC3(CC2)C(=O)N(CCc2ccccc2)C(=O)N3C)cc1
IC50 (HEPG2TOX_HILL_SLOPE 3.73, HEPG2TOX_R_SQUARED 0.979, PBLUC_HILL_SLOPE 9.4, PBLUC_R_SQUARED 0.597, read-out: LUCIFERASE INFECTION ASSAY - IC50): 2.46 µM | IC90: 3.1 µM

O=C(O)CCCNC(=O)CCn1nnc2ccccc2c1=O
IC50 [1]: > 10.8 µM | IC90: > 10.8 µM

N#CCCC(C#N)(c1ccc(F)cc1)c1cccc(F)c1C#N (configuration not stated)
IC50 [1]: > 10.7 µM | IC90: > 10.7 µM

CC(C)n1ncc2cc(C(=O)Nc3ccc4oc5ccccc5c4c3)cnc21
IC50 (HEPG2TOX_HILL_SLOPE 0.893, HEPG2TOX_R_SQUARED 0.928, PBLUC_HILL_SLOPE 1.69, PBLUC_R_SQUARED 0.728, read-out: LUCIFERASE INFECTION ASSAY - IC50): 1.84 µM | IC90: 6.74 µM

Cc1cc(C)cc(C(=O)N(C)CC(=O)N2CCCC2)c1
IC50 (FFLUC_HILL_SLOPE 0.201, FFLUC_R_SQUARED 0.0577, read-out: LUCIFERASE INFECTION ASSAY - IC50): > 10 µM | IC90: > 10 µM

O=C(Nc1cccc(-n2cnnn2)c1)c1ccc(-c2ccccc2Cl)o1
IC50 (HEPG2TOX_HILL_SLOPE 8.29, HEPG2TOX_R_SQUARED 0.71, PBLUC_HILL_SLOPE 14.4, PBLUC_R_SQUARED 0.296, read-out: LUCIFERASE INFECTION ASSAY - IC50): 8.92 µM | IC90: > 9.02 µM
